Measured values from ChEMBL document CHEMBL4024791, “Identification of Morpholino-2H-pyrido[3,2-b][1,4]oxazin-3(4H)-ones as Nonsteroidal Mineralocorticoid Antagonists” (J Med Chem, 2018).
Calls of active or inactive are those of the source. The calls are words filed in the database; no cut-off is given here.

Experiments:
[1] = target: T1, Mineralocorticoid receptor (Homo sapiens, UniProt P08235)
T1 sequence (P08235 whole entry): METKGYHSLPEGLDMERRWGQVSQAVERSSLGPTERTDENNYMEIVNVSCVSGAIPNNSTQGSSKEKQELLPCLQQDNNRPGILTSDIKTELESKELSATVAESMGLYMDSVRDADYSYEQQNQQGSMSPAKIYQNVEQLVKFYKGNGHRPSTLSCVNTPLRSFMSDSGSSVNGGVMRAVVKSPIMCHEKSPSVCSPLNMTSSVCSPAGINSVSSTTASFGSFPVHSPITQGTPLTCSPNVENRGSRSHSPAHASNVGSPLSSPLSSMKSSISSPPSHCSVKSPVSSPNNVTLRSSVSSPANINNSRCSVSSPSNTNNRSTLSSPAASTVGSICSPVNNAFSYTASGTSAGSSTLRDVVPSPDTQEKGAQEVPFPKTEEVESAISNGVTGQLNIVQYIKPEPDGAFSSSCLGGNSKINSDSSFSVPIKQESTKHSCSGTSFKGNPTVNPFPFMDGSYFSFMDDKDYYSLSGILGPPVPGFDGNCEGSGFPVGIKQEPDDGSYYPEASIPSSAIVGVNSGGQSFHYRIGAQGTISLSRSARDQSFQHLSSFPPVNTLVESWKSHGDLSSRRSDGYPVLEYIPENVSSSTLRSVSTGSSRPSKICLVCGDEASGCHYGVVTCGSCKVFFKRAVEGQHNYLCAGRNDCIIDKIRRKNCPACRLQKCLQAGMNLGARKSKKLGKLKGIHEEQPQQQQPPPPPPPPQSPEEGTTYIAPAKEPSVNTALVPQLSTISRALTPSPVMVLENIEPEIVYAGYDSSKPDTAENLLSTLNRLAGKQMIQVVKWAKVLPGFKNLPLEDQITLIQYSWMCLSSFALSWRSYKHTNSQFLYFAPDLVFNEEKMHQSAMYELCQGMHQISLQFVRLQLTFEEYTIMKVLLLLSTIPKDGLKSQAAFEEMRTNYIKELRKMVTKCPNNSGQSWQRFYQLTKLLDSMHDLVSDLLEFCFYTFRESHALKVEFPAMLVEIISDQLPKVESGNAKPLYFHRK
Description: Displacement of [3H]-aldosterone from human GST-tagged MR ligand binding domain after 4 hrs by liquid scintillation counting

[2] = Intrinsic clearance in human liver microsomes
[3] = Distribution coefficient, log D of the compound; assay type: physicochemical; conditions: octanol/water
[4] = target: T1, Mineralocorticoid receptor; remark: listed apart in the source
Description: Antagonist activity at human GAL4-DBD fused MR ligand binding domain transfected in human Huh7 cells co-expressing GAL4-RE-Luc assessed as reduction in aldosterone-induced luciferase activity after 16 hrs in presence of serum by luciferase reporter gene assay

[5] = Clearance in rat at 1 mg/kg, iv; conditions: in vivo
[6] = Intrinsic clearance in rat liver microsomes
Rattus norvegicus = assay: In vivo antagonist activity at MR in Wistar rat assessed as increase in urinary Na+ /K+ ratio at 100 mg/kg, po administered as single dose measured after 2 to 6 hrs post dose; assay type: functional, organism-based

## C[C@@H]1CN(c2ccc3c(n2)NC(=O)CO3)[C@H](c2ccccc2F)CO1
[1]
  IC50: 0.013 µM
[2]
  microsomal CLint: 14 µL/min/mg
[3]
  logD: 3.1
[4]
  IC50: 0.033 µM

## C[C@@H]1CN(c2ccc3c(c2)NC(=O)CO3)[C@H](c2ccccc2)CO1
[1]
  IC50: 0.013 µM
[2]
  microsomal CLint: 15.8 µL/min/mg
[3]
  logD: 3.1
[5]
  clearance: 3.24 L/h/kg
[6]
  microsomal CLint: 377 µL/min/mg

## C[C@@H]1CN(c2cnc3c(c2)NC(=O)CO3)[C@H](c2ccccc2)CO1
[1]
  IC50: 2.22 µM
[2]
  microsomal CLint: 13.9 µL/min/mg
[3]
  logD: 1.9

## C[C@@H]1CN(c2cc3c(cn2)OCC(=O)N3)[C@H](c2ccccc2)CO1
[1]
  IC50: 0.109 µM
[2]
  microsomal CLint: 12.6 µL/min/mg
[3]
  logD: 2.5

## N#CC[C@@H]1CN(c2ccc3c(n2)NC(=O)CO3)[C@H](c2ccccc2)CO1
[1]
  IC50: 0.056 µM
[2]
  microsomal CLint: 11.9 µL/min/mg
[3]
  logD: 2.3

## C[C@H]1CN(c2ccc3c(n2)NC(=O)CO3)[C@H](c2ccccc2)CO1
[3]
  logD: 2.7

## C[C@@H]1CN(c2ccc3c(n2)NC(=O)CO3)[C@H](c2ccc(F)cc2)CO1
[2]
  microsomal CLint: 8 µL/min/mg
[3]
  logD: 3.2

## C[C@@H]1CN(c2ccc3c(n2)NC(=O)CO3)[C@H](c2cccc(F)c2)CO1
[2]
  microsomal CLint: 9.6 µL/min/mg
[3]
  logD: 3.1

## C[C@@H]1CN(c2ncc3c(n2)NC(=O)CO3)[C@H](c2ccccc2)CO1
[1]
  IC50: 0.113 µM
[2]
  microsomal CLint: 8 µL/min/mg
[3]
  logD: 2.7
[5]
  clearance: 5.7 L/h/kg
[6]
  microsomal CLint: 146 µL/min/mg

## CC1(C)CN(c2ccc3c(n2)NC(=O)CO3)[C@H](c2ccccc2)CO1
[1]
  IC50: 0.086 µM
[2]
  microsomal CLint: 15.2 µL/min/mg
[3]
  logD: 3.3

## O=C1COc2ccc(N3C[C@@H](CO)OC[C@H]3c3ccccc3)nc2N1
[1]
  IC50: > 10 µM
[2]
  microsomal CLint: 14.8 µL/min/mg
[3]
  logD: 1.8
[4]
  IC50: 10 µM
[5]
  clearance: 3.12 L/h/kg
[6]
  microsomal CLint: 44 µL/min/mg

## COC[C@@H]1CN(c2ccc3c(n2)NC(=O)CO3)[C@H](c2ccccc2)CO1
[1]
  IC50: 0.276 µM
[2]
  microsomal CLint: 8 µL/min/mg
[3]
  logD: 2.5
[4]
  IC50: 0.358 µM

## COC(=O)[C@@H]1CC2=CC(=O)CC[C@]2(C)[C@@]23O[C@@H]2C[C@@]2(C)[C@@H](CC[C@@]24CCC(=O)O4)[C@H]13
Rattus norvegicus
  inhibition: Active

## O=C1COc2ccc(N3CCOC[C@H]3c3ccccc3)nc2N1
[1]
  IC50: 1.18 µM
[2]
  microsomal CLint: 8.9 µL/min/mg
[3]
  logD: 2.4
